Experiments:
[1] = system: ADK-L cells; experiment: 5-methylcytosine (5-mC) ELISA of genomic DNA from treated ADK-L cells; format: cell-based; conditions: compound at its IC50, genomic DNA isolated 24 hours after treatment, 100 ng DNA, n=8-9
Protocol: The IC50 for each ADK inhibitor was selected as the treatment dose. Total genomic DNA was isolated 24 hours after treatment and 100 ng of purified DNA was run on a 5-methylcytosine (5-mC) ELISA (Zymo Research Corp.) to quantify 5-methylcytosine. […] Data are represented as the mean±SEM (n=8-9). Statistical analysis is a One-way ANOVA (F(4,37)=2.95, p=0.033) followed by uncorrected Fisher's LSD post hoc test.
The IC50 of CBZ was selected as the treatment dose. Total genomic DNA was isolated 24 hours after treatment, and 100 ng of purified DNA was run on a 5-methylcytosine (5-mC) ELISA (Zymo Research Corp) to determine the amount of 5-methylcytosine. […] Data are represented as the mean±SEM (n=8-9). Statistical analysis is a One-way ANOVA for Panel A (F(2,23)=5.67, p=0.0099) followed by uncorrected Fisher's LSD post hoc test and Kruskal-Wallis test for Panel B (Kruskal-Wallis statistic=1.11, p=0.57).

[2] = system: ADK-S cells; experiment: 5-methylcytosine (5-mC) ELISA of genomic DNA from treated ADK-S cells; format: cell-based; conditions: for DNA methylation levels in ADK-S cells compared to vehicle-treated ADK-S cells: compound at its IC50, 24 hours after treatment, n=4-9
Protocol: 100 ng of purified genomic DNA was run on a 5-methylcytosine (5-mC) ELISA (Zymo Research Corp.) to quantify 5-methylcytosine.
FIG. 8 is a pair of bar graphs plotting the amount of 5-methylcytosine detected in genomic DNA isolated from the ADK-null cell line (Panel A) and the ADK-S cell line (Panel B) of FIG. 3, in the absence or presence of various ADK inhibitors, with each amount normalized with respect to the amount detected for vehicle-treated ADK-null cells. ADK-null and ADK-S cells identify off target effects of ADK inhibitors on DNA methylation levels. […] The IC50 for each ADK inhibitor was selected as the treatment dose. Total genomic DNA was isolated 24 hours after treatment, and 100 ng of purified DNA was run on a 5-methylcytosine (5-mC) ELISA (Zymo Research Corp) to determine the amount of 5-methylcytosine. […] Data are represented as the mean±SEM (n=4-9). Statistical analysis is a One-way ANOVA followed by uncorrected Fisher's LSD post hoc test.
FIG. 9 is a pair of bar graphs plotting the amount of 5-methylcytosine detected in genomic DNA isolated from the ADK-L cell line (Panel A) and the ADK-S cell line (Panel B) of FIG. 3, in the absence or presence of carbamazepine, with vehicle-treated ADK-null cells as a control. […] The IC50 of CBZ was selected as the treatment dose. Total genomic DNA was isolated 24 hours after treatment, and 100 ng of purified DNA was run on a 5-methylcytosine (5-mC) ELISA (Zymo Research Corp) to determine the amount of 5-methylcytosine. […] Data are represented as the mean±SEM (n=8-9). Statistical analysis is a One-way ANOVA for Panel A (F(2,23)=5.67, p=0.0099) followed by uncorrected Fisher's LSD post hoc test and Kruskal-Wallis test for Panel B (Kruskal-Wallis statistic=1.11, p=0.57).

[3] = target: ADK (Homo sapiens, UniProt P55263); conditions: cited from earlier work; for IC50: used as treatment dose, read-out: IC50 of ADK inhibitor
Sequence of ADK (P55263 whole entry, species assumed): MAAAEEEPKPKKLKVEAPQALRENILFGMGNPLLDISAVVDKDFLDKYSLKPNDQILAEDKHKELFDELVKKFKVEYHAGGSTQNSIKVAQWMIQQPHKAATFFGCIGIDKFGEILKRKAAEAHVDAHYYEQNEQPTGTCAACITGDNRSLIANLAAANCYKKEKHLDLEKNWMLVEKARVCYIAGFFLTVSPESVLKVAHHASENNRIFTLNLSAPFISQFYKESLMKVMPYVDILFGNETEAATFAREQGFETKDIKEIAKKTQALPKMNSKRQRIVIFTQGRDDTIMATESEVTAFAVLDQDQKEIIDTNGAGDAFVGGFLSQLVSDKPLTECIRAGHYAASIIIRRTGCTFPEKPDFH

SMILES	DNA methylation (5-methylcytosine) in ADK-L cells versus vehicle alone [1]	DNA methylation levels in ADK-S cells compared to vehicle-treated ADK-S cells [2]	DNA methylation levels in CBZ-treated ADK-S cells compared to ADK-null cells ([2]; CBZ 24.5 nM, 24 hours after treatment, n=8-9, Kruskal-Wallis p=0.57)	Interaction with ADK [3]	IC50 [3]
Nc1ncnc2c1c(I)cn2[C@@H]1O[C@H](CO)[C@@H](O)[C@H]1O [5-ITU, 5-iodotubercidin]	significantly decreases DNA methylation	significantly increased	–	–	–
NC(=O)N1c2ccccc2C=Cc2ccccc21 [CBZ, Carbamazepine]	does not decrease DNA methylation	–	not significantly different	does not interact with ADK	–
Nc1ncnc2nc(-c3ccc(N4CCOCC4)nc3)cc(-c3cccc(Br)c3)c12 [ABT-702]	Neither ABT-702 nor A-134974 alters DNA methylation	–	–	–	1.7 nM
Nc1ncnc2c1c(I)cn2[C@@H]1C[C@H](N)[C@@H](O)[C@H]1O [A-134974]	Neither ABT-702 nor A-134974 alters DNA methylation	significantly increased	–	–	0.06 nM

— patent publication US20170219562A1, “EPIGENETIC COMPOUND SCREENING PLATFORM” (Legacy Emanuel Hospital & Health Center, priority 2016, published 2017)
